Experimental data published in PubChem BioAssay (NCI).
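Where inhibition never reached the appropriate level, the endpoint shown equals the highest concentration tested. Otherwise, values were interpolated linearly from a five-concentration, 48-hour dose response in 96-well plates. At the GI50, growth is halved. At the TGI there is no net growth.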

What was measured:
Experiment in all cases: DTP human tumour cell line panel, 48 h
K-562 leukemia = tested on: K-562 leukemia
LOX IMVI melanoma = tested on: LOX IMVI melanoma
EKVX NSCLC = tested on: EKVX NSCLC
SNB-75 CNS = tested on: SNB-75 CNS
NCI-H226 lung = tested on: NCI-H226 lung
SW-620 colon = tested on: SW-620 colon
NCI-H460 lung = tested on: NCI-H460 lung
COLO 205 colon = tested on: COLO 205 colon
ACHN renal = tested on: ACHN renal
OVCAR-4 ovarian = tested on: OVCAR-4 ovarian
BT-549 breast = tested on: BT-549 breast
OVCAR-3 ovarian = tested on: OVCAR-3 ovarian
HL-60(TB) leukemia = tested on: HL-60(TB) leukemia
SK-MEL-28 melanoma = tested on: SK-MEL-28 melanoma
MDA-MB-231 breast = tested on: MDA-MB-231 breast
A549 NSCLC = tested on: A549 NSCLC
SK-MEL-2 melanoma = tested on: SK-MEL-2 melanoma
NCI-H23 lung = tested on: NCI-H23 lung
MALME-3M melanoma = tested on: MALME-3M melanoma
OVCAR-5 ovarian = tested on: OVCAR-5 ovarian
SNB-19 CNS = tested on: SNB-19 CNS
TK-10 renal = tested on: TK-10 renal
KM12 colon = tested on: KM12 colon
U251 CNS = tested on: U251 CNS
HOP-92 NSCLC = tested on: HOP-92 NSCLC
IGROV1 ovarian = tested on: IGROV1 ovarian
SF-268 CNS = tested on: SF-268 CNS
HCT-116 colon = tested on: HCT-116 colon
UACC-62 melanoma = tested on: UACC-62 melanoma
UO-31 renal = tested on: UO-31 renal
T-47D breast = tested on: T-47D breast
CCRF-CEM leukemia = tested on: CCRF-CEM leukemia
HS 578T breast = tested on: HS 578T breast
786-0 renal = tested on: 786-0 renal
PC-3 prostate = tested on: PC-3 prostate
HCT-15 colon = tested on: HCT-15 colon
A498 renal = tested on: A498 renal
DU-145 prostate = tested on: DU-145 prostate
MCF7 breast = tested on: MCF7 breast
SR leukemia = tested on: SR leukemia
NCI/ADR-RES ovarian = tested on: NCI/ADR-RES ovarian
MDA-MB-435 = tested on: MDA-MB-435
CAKI-1 renal = tested on: CAKI-1 renal
RPMI-8226 leukemia = tested on: RPMI-8226 leukemia
SK-MEL-5 melanoma = tested on: SK-MEL-5 melanoma
SF-539 CNS = tested on: SF-539 CNS
SK-OV-3 ovarian = tested on: SK-OV-3 ovarian
HCC-2998 colon = tested on: HCC-2998 colon
M14 melanoma = tested on: M14 melanoma
RXF 393 renal = tested on: RXF 393 renal
HT29 colon = tested on: HT29 colon
UACC-257 melanoma = tested on: UACC-257 melanoma
SN12C renal = tested on: SN12C renal
OVCAR-8 ovarian = tested on: OVCAR-8 ovarian
NCI-H522 lung = tested on: NCI-H522 lung
HOP-62 NSCLC = tested on: HOP-62 NSCLC
SF-295 CNS = tested on: SF-295 CNS

## COc1cc(-c2csc(NC(=O)Nc3ccc(Cl)cc3)n2)cc(OC)c1OC
K-562 leukemia
  GI50: 3.38 µM
  TGI: > 100 µM
LOX IMVI melanoma
  GI50: 2.59 µM
  TGI: 7.59 µM
EKVX NSCLC
  GI50: 2.77 µM
  TGI: > 64.5 µM
SNB-75 CNS
  GI50: 2.12 µM
  TGI: 8.39 µM
NCI-H226 lung
  GI50: 3.22 µM
  TGI: 10.7 µM
SW-620 colon
  GI50: 3.96 µM
  TGI: > 100 µM
NCI-H460 lung
  GI50: 3.32 µM
  TGI: > 48.4 µM
COLO 205 colon
  GI50: 2.52 µM
  TGI: 7.05 µM
ACHN renal
  GI50: 2.53 µM
  TGI: 7.35 µM
OVCAR-4 ovarian
  GI50: 2.89 µM
  TGI: > 49.6 µM
BT-549 breast
  GI50: 2.18 µM
  TGI: 6.26 µM
OVCAR-3 ovarian
  GI50: 2.54 µM
  TGI: 7.23 µM
HL-60(TB) leukemia
  GI50: 2.79 µM
  TGI: 6.83 µM
SK-MEL-28 melanoma
  GI50: 2.44 µM
  TGI: 7.12 µM
MDA-MB-231 breast
  GI50: 2.99 µM
  TGI: 12.7 µM
A549 NSCLC
  GI50: 3.15 µM
  TGI: 13.4 µM
SK-MEL-2 melanoma
  GI50: 2.18 µM
  TGI: 5.04 µM
NCI-H23 lung
  GI50: 2.54 µM
  TGI: 10.9 µM
MALME-3M melanoma
  GI50: 2.11 µM
  TGI: 6.32 µM
OVCAR-5 ovarian
  GI50: 3.56 µM
  TGI: 21 µM
SNB-19 CNS
  GI50: 3.78 µM
  TGI: 30.2 µM
TK-10 renal
  GI50: 3.25 µM
  TGI: 14.9 µM
KM12 colon
  GI50: 2.57 µM
  TGI: 7.9 µM
U251 CNS
  GI50: 3.35 µM
  TGI: 13.1 µM
HOP-92 NSCLC
  GI50: 2.12 µM
  TGI: 6.85 µM
IGROV1 ovarian
  GI50: 3.18 µM
  TGI: 29.5 µM
SF-268 CNS
  GI50: 3.28 µM
  TGI: 20.8 µM
HCT-116 colon
  GI50: 2.83 µM
  TGI: 8.12 µM
UACC-62 melanoma
  GI50: 1.93 µM
  TGI: 4.22 µM
UO-31 renal
  GI50: 2.35 µM
  TGI: 7.68 µM
T-47D breast
  GI50: 1.91 µM
  TGI: 6.29 µM
CCRF-CEM leukemia
  GI50: 3.44 µM
  TGI: > 49.9 µM
HS 578T breast
  GI50: 3.58 µM
  TGI: 20.3 µM
786-0 renal
  GI50: 2.35 µM
  TGI: 7.83 µM
PC-3 prostate
  GI50: 2.4 µM
  TGI: 8.39 µM
HCT-15 colon
  GI50: 2.9 µM
  TGI: > 40.9 µM
A498 renal
  GI50: 2.24 µM
  TGI: 8.03 µM
DU-145 prostate
  GI50: 3.4 µM
  TGI: 17.3 µM
MCF7 breast
  GI50: 2.53 µM
  TGI: 10.7 µM
SR leukemia
  GI50: 4.36 µM
  TGI: > 100 µM
NCI/ADR-RES ovarian
  GI50: 2.7 µM
  TGI: 8.65 µM
MDA-MB-435
  GI50: 2.17 µM
  TGI: 5.88 µM
CAKI-1 renal
  GI50: 2.91 µM
  TGI: 11.1 µM
RPMI-8226 leukemia
  GI50: 2.14 µM
  TGI: 5.78 µM
SK-MEL-5 melanoma
  GI50: 2.2 µM
  TGI: 5.2 µM
SF-539 CNS
  GI50: 2.98 µM
  TGI: 13.7 µM
SK-OV-3 ovarian
  GI50: 3 µM
  TGI: 8.91 µM
HCC-2998 colon
  GI50: 3.9 µM
  TGI: 18.8 µM
M14 melanoma
  GI50: 2.27 µM
  TGI: 5.92 µM
RXF 393 renal
  GI50: 3.91 µM
  TGI: 13.9 µM
HT29 colon
  GI50: 3.01 µM
  TGI: 12.4 µM
UACC-257 melanoma
  GI50: 2.48 µM
  TGI: 6.03 µM
SN12C renal
  GI50: 3.18 µM
  TGI: 13.7 µM
OVCAR-8 ovarian
  GI50: 2.46 µM
  TGI: 5.85 µM
NCI-H522 lung
  GI50: 2.34 µM
  TGI: 6.95 µM
HOP-62 NSCLC
  GI50: 2.65 µM
  TGI: 7.76 µM
SF-295 CNS
  GI50: 2.51 µM
  TGI: 8.45 µM
